According to patent US11911386B2, “Methods of treating B-cell proliferative disorder” (BeiGene Switzerland GmbH, priority 2022, dated 2024):
Where “and” joins values, the source holds several entries; their conditions need not be identical. Equal entries are not always repeated. Where two headings read alike, the source gives them in different places.

C=CC(=O)N1CCC([C@@H]2CCNc3c(C(N)=O)c(-c4ccc(Oc5ccccc5)cc4)nn32)CC1 [zanubrutinib, (S)-7-(1-acryloylpiperidin-4-yl)-2-(4-phenoxyphenyl)-4,5,6,7-tetrahydropyrazolo[1,5-a]pyrimidine-3-carboxamide]
Opportunistic infection AESI, EAIR (During Coadministration): 0.67 per 100 person-months
Opportunistic infection AESI, patients (During Coadministration): 2.9%
Opportunistic infection SAEs, EAIR (During Coadministration): 0.50 per 100 person-months
Patients with at least 1 AESI (During Coadministration): 67 (48.6) n (%)
Petechiae (hemorrhage AESI) (During Coadministration): 0.7%
Platelet count decreased PT (During Coadministration): 2.2%
Platelet count decreased ≥Grade 3 (During Coadministration): 1.4%
Purpura (hemorrhage AESI) (During Coadministration): 0.0%
SAEs of opportunistic infections, patients (During Coadministration): 2.2% and 2.9%
Second primary malignancies AESI leading to dose interruption (During Coadministration): 1.4%
Second primary malignancies AESI ≥Grade 3, EAIR (During Coadministration): 0.33 per 100 person-months
Second primary malignancies AESI ≥Grade 3, patients (During Coadministration): 1.4%
Second primary malignancies AESI, EAIR (During Coadministration): 0.72 per 100 person-months
Second primary malignancies AESI, patients (During Coadministration): 2.9%
Sepsis (During Coadministration): 2.2%
Serious AESI (During Coadministration): 29 (21.0) n (%)
Serious atrial fibrillation and flutter AESI, EAIR (During Coadministration): 0.0 per 100 person-months
Serious atrial fibrillation and flutter AESI, patients (During Coadministration): 0.0%
Serious external ear neoplasm malignant (During Coadministration): 1 (0.7%) n (%)
Serious haematuria (During Coadministration): 0 (0.0%) n (%)
Serious haematuria (major hemorrhage) (During Coadministration): 0 (0.0%) n (%)
Serious hemorrhage AESI, EAIR (During Coadministration): 0.0 per 100 person-months
Serious hemorrhage AESI, patients (During Coadministration): 0.0%
Serious hypertension AESI, EAIR (During Coadministration): 0.16 per 100 person-months
Serious infection AESI, EAIR (During Coadministration): 6.16 per 100 person-months
Serious major hemorrhage AESI, EAIR (During Coadministration): 0.0 per 100 person-months
Serious major hemorrhage AESI, patients (During Coadministration): 0.0%
Serious neutropenia AESI, EAIR (During Coadministration): 1.11 per 100 person-months
Serious neutropenia AESI, patients (During Coadministration): 4.3%
Serious neutropenic sepsis (During Coadministration): 0%
Serious neutrophil count decreased (During Coadministration): 0.7%
Serious second primary malignancies AESI, EAIR (During Coadministration): 0.33 per 100 person-months
Serious second primary malignancies AESI, patients (During Coadministration): 1.4%
Serious squamous cell carcinoma of skin (During Coadministration): 0 (0.0%) n (%)
Sinusitis (During Coadministration): 2.9%
Skin cancer AESI ≥Grade 3, EAIR (During Coadministration): 0.00 per 100 person-months
Skin cancer AESI, EAIR (During Coadministration): 0.17 per 100 person-months
Skin cancer AESI, patients (During Coadministration): 0.7%
Skin cancer SAE, EAIR (During Coadministration): 0.00 per 100 person-months
Squamous cell carcinoma of skin (During Coadministration): 0.7%
Squamous cell carcinoma of skin ≥Grade 3 (During Coadministration): 0 (0.0%) n (%)
Thrombocytopenia AESI leading to dose interruption (During Coadministration): 1.4%
Thrombocytopenia AESI ≥Grade 3, EAIR (During Coadministration): 0.83 per 100 person-months
Thrombocytopenia AESI ≥Grade 3, patients (During Coadministration): 3.6%
Thrombocytopenia AESI, EAIR (During Coadministration): 1.52 per 100 person-months
Thrombocytopenia AESI, patients (During Coadministration): 6.5%
Thrombocytopenia PT (During Coadministration): 4.3%
Viral upper respiratory tract infection (During Coadministration): 2.2%
Anemia AESI ≥Grade 3, EAIR (Prior to Coadministration): 0.54 per 100 person-months
Anemia AESI, EAIR (Prior to Coadministration): 1.07 per 100 person-months
Atrial fibrillation PT (Prior to Coadministration): 1.7%
Atrial fibrillation and flutter AESI Grade ≥3, EAIR (Prior to Coadministration): 0.13 per 100 person-months
Atrial fibrillation and flutter AESI Grade ≥3, patients (Prior to Coadministration): 1.7%
Atrial fibrillation and flutter AESI, EAIR (Prior to Coadministration): 0.13 per 100 person-months
Atrial fibrillation and flutter AESI, patients (Prior to Coadministration): 1.7%
Atrial flutter PT (Prior to Coadministration): 0.0%
Basal cell carcinoma (Prior to Coadministration): 4.2%
Basal cell carcinoma leading to dose interruption (Prior to Coadministration): 2 (1.7%) n (%)
Basal cell carcinoma ≥Grade 3 (Prior to Coadministration): 2 (1.7%) n (%)
Bronchopulmonary aspergillosis (Prior to Coadministration): 3 (2.5%) n (%)
External ear neoplasm malignant leading to dose interruption (Prior to Coadministration): 2 (1.7%) n (%)
Febrile neutropenia PT (Prior to Coadministration): 1.7%
Grade 3 or higher AESI (Prior to Coadministration): 69 (58.0) n (%)
Haematuria (hemorrhage AESI) (Prior to Coadministration): 8.4%
Haematuria (major hemorrhage) (Prior to Coadministration): 2 (1.7%) n (%)
Haematuria (major hemorrhage) ≥Grade 3 (Prior to Coadministration): 2 (1.7%) n (%)
Haematuria leading to dose interruption (Prior to Coadministration): 2 (1.7%) n (%)
Haematuria ≥Grade 3 (Prior to Coadministration): 2 (1.7%) n (%)
Hemorrhage AESI leading to dose interruption (Prior to Coadministration): 3.4%
Hemorrhage AESI leading to dose reduction (Prior to Coadministration): 1.7%
Hemorrhage AESI ≥Grade 3, EAIR (Prior to Coadministration): 0.19 per 100 person-months
Hemorrhage AESI ≥Grade 3, patients (Prior to Coadministration): 2.5%
Hemorrhage AESI, EAIR (Prior to Coadministration): 9.70 per 100 person-months
Hemorrhage AESI, patients (Prior to Coadministration): 55.5%
Hepatitis B reactivation AESI (Prior to Coadministration): 2.5%
Hepatitis B reactivation AESI ≥Grade 3 (Prior to Coadministration): 2 (1.7%) n (%)
Hypertension AESI ≥Grade 3, EAIR (Prior to Coadministration): 0.56 per 100 person-months
Hypertension AESI ≥Grade 3, patients (Prior to Coadministration): 6.7%
Hypertension AESI, EAIR (Prior to Coadministration): 1.13 per 100 person-months
Hypertension AESI, patients (Prior to Coadministration): 12.6%
Infection AESI leading to death (Prior to Coadministration): 0.8%
Infection AESI leading to dose reduction (Prior to Coadministration): 7.6%
Infection AESI leading to treatment discontinuation (Prior to Coadministration): 1.7%
Infection AESI ≥Grade 3, EAIR (Prior to Coadministration): 3.82 per 100 person-months
Infection AESI, EAIR (Prior to Coadministration): 18.08 per 100 person-months
Major hemorrhage AESI leading to dose interruption (Prior to Coadministration): 1.7%
Major hemorrhage AESI ≥Grade 3, EAIR (Prior to Coadministration): 0.19 per 100 person-months
Major hemorrhage AESI ≥Grade 3, patients (Prior to Coadministration): 2.5%
Major hemorrhage AESI, EAIR (Prior to Coadministration): 0.25 per 100 person-months
Major hemorrhage AESI, patients (Prior to Coadministration): 3.4%
Malignant melanoma (Prior to Coadministration): 2 (1.7%) n (%)
Meningitis cryptococcal (Prior to Coadministration): 2 (1.7%) n (%)
Neutropenia AESI leading to dose reduction (Prior to Coadministration): 2.5%
Neutropenia AESI leading to treatment interruption (Prior to Coadministration): 7.6%
Neutropenia AESI ≥Grade 3, EAIR (Prior to Coadministration): 1.74 per 100 person-months
Neutropenia AESI ≥Grade 3, patients (Prior to Coadministration): 20.2%
Neutropenia AESI, EAIR (Prior to Coadministration): 2.72 per 100 person-months
Neutropenia AESI, patients (Prior to Coadministration): 28.6%
Neutropenic sepsis PT (Prior to Coadministration): 0.8%
Neutropenic sepsis ≥Grade 3 (Prior to Coadministration): 0.8%
Neutrophil count decreased leading to dose reduction (Prior to Coadministration): 0.8%
Opportunistic infection AESI leading to dose reduction (Prior to Coadministration): 3.4%
Opportunistic infection AESI leading to treatment discontinuation (Prior to Coadministration): 0.8%
Opportunistic infection AESI ≥Grade 3, EAIR (Prior to Coadministration): 0.38 per 100 person-months
Opportunistic infection AESI ≥Grade 3, patients (Prior to Coadministration): 6 (5.0%) n (%)
Opportunistic infection AESI, EAIR (Prior to Coadministration): 0.64 per 100 person-months
Opportunistic infection AESI, patients (Prior to Coadministration): 8.4%
Opportunistic infection SAEs, EAIR (Prior to Coadministration): 0.38 per 100 person-months
Patients with at least 1 AESI (Prior to Coadministration): 115 (96.6) n (%)
Petechiae (hemorrhage AESI) (Prior to Coadministration): 5.9%
Platelet count decreased PT (Prior to Coadministration): 3.4%
Platelet count decreased ≥Grade 3 (Prior to Coadministration): 0.8%
Purpura (hemorrhage AESI) (Prior to Coadministration): 5.9%
SAEs of opportunistic infections, patients (Prior to Coadministration): 5.0% and 8.4%
Second primary malignancies AESI leading to dose interruption (Prior to Coadministration): 4.2%
Second primary malignancies AESI ≥Grade 3, EAIR (Prior to Coadministration): 0.32 per 100 person-months
Second primary malignancies AESI ≥Grade 3, patients (Prior to Coadministration): 4.2%
Second primary malignancies AESI, EAIR (Prior to Coadministration): 1.05 per 100 person-months
Second primary malignancies AESI, patients (Prior to Coadministration): 12.6%
Serious AESI (Prior to Coadministration): 53 (44.5) n (%)
Serious anemia AESI, EAIR (Prior to Coadministration): 0.06 per 100 person-months
Serious atrial fibrillation and flutter AESI, EAIR (Prior to Coadministration): 0.06 per 100 person-months
Serious atrial fibrillation and flutter AESI, patients (Prior to Coadministration): 0.8%
Serious external ear neoplasm malignant (Prior to Coadministration): 2 (1.7%) n (%)
Serious haematuria (Prior to Coadministration): 2 (1.7%) n (%)
Serious haematuria (major hemorrhage) (Prior to Coadministration): 2 (1.7%) n (%)
Serious hemorrhage AESI, EAIR (Prior to Coadministration): 0.25 per 100 person-months
Serious hemorrhage AESI, patients (Prior to Coadministration): 3.4%
Serious infection AESI, EAIR (Prior to Coadministration): 3.31 per 100 person-months
Serious major hemorrhage AESI, EAIR (Prior to Coadministration): 0.25 per 100 person-months
Serious major hemorrhage AESI, patients (Prior to Coadministration): 3.4%
Serious neutropenia AESI, EAIR (Prior to Coadministration): 0.26 per 100 person-months
Serious neutropenia AESI, patients (Prior to Coadministration): 3.4%
Serious neutropenic sepsis (Prior to Coadministration): 0.8%
Serious neutrophil count decreased (Prior to Coadministration): 0.0%
Serious second primary malignancies AESI, EAIR (Prior to Coadministration): 0.39 per 100 person-months
Serious second primary malignancies AESI, patients (Prior to Coadministration): 5.0%
Serious squamous cell carcinoma of skin (Prior to Coadministration): 2 (1.7%) n (%)
Skin cancer AESI ≥Grade 3, EAIR (Prior to Coadministration): 0.26 per 100 person-months
Skin cancer AESI, EAIR (Prior to Coadministration): 0.69 per 100 person-months
Skin cancer AESI, patients (Prior to Coadministration): 8.4%
Skin cancer SAE, EAIR (Prior to Coadministration): 0.26 per 100 person-months
Squamous cell carcinoma of skin (Prior to Coadministration): 5.0%
Squamous cell carcinoma of skin ≥Grade 3 (Prior to Coadministration): 2 (1.7%) n (%)
Thrombocytopenia AESI leading to dose interruption (Prior to Coadministration): 0.8%
Thrombocytopenia AESI ≥Grade 3, EAIR (Prior to Coadministration): 0.26 per 100 person-months
Thrombocytopenia AESI ≥Grade 3, patients (Prior to Coadministration): 3.4%
Thrombocytopenia AESI, EAIR (Prior to Coadministration): 0.79 per 100 person-months
Thrombocytopenia AESI, patients (Prior to Coadministration): 9.2%
Thrombocytopenia PT (Prior to Coadministration): 6.7%
Tumor lysis syndrome AESI (all study periods): No AESI of tumor lysis syndrome were reported
